Data: patent publication US7638056B2, “Treatment of sewage sludge” (Rhodia Operations, priority 2003, dated 2009)
Like-named read-outs stand apart in the source and are kept apart here.

Test system: E. coli
Settings: for time/kill response over the first 6 hours contact time / contact time to total kill: FIG. 1; for contact time to total kill: sterile sludge, 22° C., about 10^8 cells per ml
Text: The methodology adopted to evaluate biocide performance was by Quantitative Suspension Test (QST) using sterile anaerobic digester sludge as the QST medium, back-inoculated with E. coli cultures previously isolated from the sludge. In this way, a consistent chemical environment (sterile sludge) could be used in conjunction with a defined bacterial challenge. This enables the provision of consistency between tests.
The E. coli strains used in QST had been isolated from raw-sludge samples.
QST were performed as follows: • Sterile sludge (19 ml) was dispensed into sterile, screw-cap, plastics universal bottles of nominal 30 ml capacity. • To each sample was added 0.5 ml of a washed cell suspension of E. coli prepared from a 16-hour culture incubated at 44° C. in Tryptose Soy Broth, which had been centrifuged (14500 rpm for 10 min.) and re-suspended in sterile phosphate buffer (0.2M at pH 7.2). An inoculum of 0.5 ml was sufficient to provide a final cell concentration of about 10^8 per ml in 20 ml of QST medium. • Fresh stock solutions of the candidate treatment chemicals were prepared in sterile phosphate buffer (0.2M at pH 7.2) at concentrations such that when 0.5 ml was added to the QST medium (final volume 20 ml) the desired final concentration of biocide was achieved. • The QST medium was mixed thoroughly and held at 22° C. for the duration of the test. • At intervals during the test, the sludge was well mixed and samples (1.0 ml) were removed from the QST medium and inoculated into the first tube of a dilution series containing MacConkey broth supplemented with sodium thiosulphate (5.0 g/l), to inactivate any residual biocide carried into the dilution series.
The end point was scored as the highest dilution in the series to show a change in colour from purple to yellow and to have developed turbidity.
MacConkey Broth was selected as this medium contains the pH indicator Bromocresol Purple that changes from purple to yellow as the medium becomes acidic. This is a useful indirect indicator of microbial growth (organic acid production) where this cannot be scored by the development of turbidity in an initially clear medium. Because the sludge contains suspended solids the first 2 tubes of the dilution series instantaneously develop turbidity on the addition of the sludge. This precludes using turbidity alone as an indicator of microbial growth.

Question: What does the source list for “tetrakis(hydroxymethyl) phosphonium sulphate [Phosphonium Salt]”?
Answer: time/kill response over the first 6 hours contact time (250 mg/l): fairly flat; contact time to total kill (250 mg/l): ≤ 48 h; time/kill response over the first 6 hours contact time (500 mg/l): fairly flat; contact time to total kill (500 mg/l): ≤ 48 h; time/kill response over the first 6 hours contact time (1000 mg/l): more progressive; contact time to total kill (1000 mg/l): ≤ 24 h; anti-microbial performance (Phosphonium Salt compared with DBNPA) (equal active-ingredient concentration of 500 mg/l, FIG. 3): superior

Question: With `N#CC(Br)(Br)C(N)=O` [DBNPA, dibromo-nitrilo-propionamide, reference compound] as the compound, how does the “log reduction in numbers” value (500 mg/l active ingredient, after 48 hours, FIG. 3) read?
Answer: 2.5 log
